Columns and labels:
[1] = Excipient compatibility study; assay type: physicochemical; settings: for Total Impurities % (excluding API impurities %) / Chromatographic purity by HPLC (Assay): 40° C./75% RH
Experimental: An excipient compatibility study was initiated with selected excipients ranging from oils to surfactants based on equilibrium solubility results (Table 2). […] After solutions were prepared using a hand-held homogenizer (Model IKAT10 Ultra-Turrax), each excipient sample was aliquoted in amber vials, approximately 10% water was added in each excipient aliquot, and bench scale gel stripe OET-004037 was also made and added in a separate set of aliquot samples at approximately 1:1 w/w.
All samples were stored at 40° C./75% relative humidity (RH) condition (Model: Lunaire environmental chamber) and tested by developmental reversed phase HPLC method for Assay/Related Substances at T=0, 2 weeks, and 1 month.

[2] = Solubility determination of ivermectin in excipients
Experimental: The solubility assessments were performed by continually adding a known amount of the API into each individual excipient and letting the excipient reach solubility equilibrium via API saturation (visible solid observed). The experiments were conducted at ambient conditions (25° C.) and were left to mix on a stir plate at 500 RPM for at least 72 hours.

[3] = in Oleic acid, Sample: Control, T = 0
[4] = in Oleic acid, Sample: Control, T = 2 weeks
[5] = in Oleic acid, Sample: Gel Stripe (1:1 w/w), T = 2 weeks
[6] = in PEG 400, Sample: 10% water, T = 2 weeks
[7] = in PEG 400, Sample: Control, T = 0
[8] = in PEG 400, Sample: Control, T = 2 weeks
[9] = in PEG 400, Sample: Gel Stripe (1:1 w/w), T = 2 weeks
[10] = in Tween 80, Sample: 10% water, T = 1 months
[11] = in Tween 80, Sample: 10% water, T = 2 weeks
[12] = in Tween 80, Sample: Control, T = 0
[13] = in Tween 80, Sample: Control, T = 1 months
[14] = in Tween 80, Sample: Control, T = 2 weeks
[15] = in Tween 80, Sample: Gel Stripe (1:1 w/w), T = 1 months
[16] = in Tween 80, Sample: Gel Stripe (1:1 w/w), T = 2 weeks
[17] = in Vitamin E TPGS, Sample: 10% water, T = 1 months
[18] = in Vitamin E TPGS, Sample: 10% water, T = 2 weeks
[19] = in Vitamin E TPGS, Sample: Control, T = 0
[20] = in Vitamin E TPGS, Sample: Control, T = 1 months
[21] = in Vitamin E TPGS, Sample: Control, T = 2 weeks
[22] = in Vitamin E TPGS, Sample: Gel Stripe (1:1 w/w), T = 1 months
[23] = in Vitamin E TPGS, Sample: Gel Stripe (1:1 w/w), T = 2 weeks

With ivermectin the “Total Impurities % (excluding API impurities %)” value (shortened to “Total Impurities %”) ([1]; in Oleic acid, Sample: 10% water, T = 2 weeks) was 9.89 % adjusted area, the “Chromatographic purity by HPLC (Assay)” value [1, 3] was 99.60 % area and the “Total Impurities %” value [1, 3] was “<LOQ”. For the same substance, the “Chromatographic purity by HPLC (Assay)” value [1, 4] was 83.55 % area, the “Total Impurities %” value [1, 4] was 17.27 % adjusted area and the “Chromatographic purity by HPLC (Assay)” value [1, 5] was 83.73 % area. For the same substance, the “Total Impurities %” value [1, 5] was 11.82 % adjusted area, the “Chromatographic purity by HPLC (Assay)” value [1, 6] was 94.35 % area and the “Total Impurities %” value [1, 6] was 3.15 % adjusted area. The “Chromatographic purity by HPLC (Assay)” value [1, 7] was 97.58 % area, the “Total Impurities %” value [1, 7] was 0.10 % adjusted area and the “Chromatographic purity by HPLC (Assay)” value [1, 8] was 89.36 % area. The “Total Impurities %” value [1, 8] was 8.54 % adjusted area, the “Chromatographic purity by HPLC (Assay)” value [1, 9] was 96.92 % area and the “Total Impurities %” value [1, 9] was 0.50 % adjusted area. The “Chromatographic purity by HPLC (Assay)” value [1, 10] was 91.18 % area, the “Total Impurities %” value [1, 10] was 6.94 % adjusted area and the “Chromatographic purity by HPLC (Assay)” value [1, 11] was 93.02 % area. The “Total Impurities %” value [1, 11] was 3.53 % adjusted area, the “Chromatographic purity by HPLC (Assay)” value [1, 12] was 97.53 % area and the “Total Impurities %” value [1, 12] was 0.16 % adjusted area. For the same substance, the “Chromatographic purity by HPLC (Assay)” value [1, 13] was 88.45 % area, the “Total Impurities %” value [1, 13] was 10.55 % adjusted area and the “Chromatographic purity by HPLC (Assay)” value [1, 14] was 91.87 % area. For the same substance, the “Total Impurities %” value [1, 14] was 4.86 % adjusted area, the “Chromatographic purity by HPLC (Assay)” value [1, 15] was 93.51 % area and the “Total Impurities %” value [1, 15] was 4.22 % adjusted area. For the same substance, the “Chromatographic purity by HPLC (Assay)” value [1, 16] was 93.97 % area, the “Total Impurities %” value [1, 16] was 2.43 % adjusted area and the “Chromatographic purity by HPLC (Assay)” value [1, 17] was 97.46 % area. For the same substance, the “Total Impurities %” value [1, 17] was “<LOQ”, the “Chromatographic purity by HPLC (Assay)” value [1, 18] was 96.99 % area and the “Total Impurities %” value [1, 18] was 0.42 % adjusted area. The “Chromatographic purity by HPLC (Assay)” value [1, 19] was 97.74 % area, the “Total Impurities %” value [1, 19] was “<LOQ” and the “Chromatographic purity by HPLC (Assay)” value [1, 20] was 97.37 % area. The “Total Impurities %” value [1, 20] was 0.11 % adjusted area, the “Chromatographic purity by HPLC (Assay)” value [1, 21] was 97.43 % area and the “Total Impurities %” value [1, 21] was “<LOQ”. The “Chromatographic purity by HPLC (Assay)” value [1, 22] was 97.74 % area, the “Total Impurities %” value [1, 22] was “<LOQ” and the “Chromatographic purity by HPLC (Assay)” value [1, 23] was 97.50 % area. For the same substance, the “Total Impurities %” value [1, 23] was “<LOQ”, the “Chemical compatibility with the API” value ([1]; oily vehicles including Maisine CC, fractionated coconut oil, and oleic acid) was “good chemical compatibility” and the Solubility ([2]; in Capryol 90, 25° C.) was 150.92 mg/g. For the same substance, the Solubility ([2]; in Fractionated Coconut oil, 25° C.) was 16.55 mg/g, the Solubility ([2]; in Glycerin, 25° C.) was under 0.1 mg/g and the Solubility ([2]; in Kolliphor EL, 25° C.) was 95.85 mg/g. It also gave a Solubility ([2]; in Labrafil M 2125 CS, 25° C.) of 35.32 mg/g, a Solubility ([2]; in Labrasol ALF, 25° C.) of 126.36 mg/g and a Solubility ([2]; in LauroglycolTM FCC, 25° C.) of 71.96 mg/g. The Solubility ([2]; in Maisine CC, 25° C.) was 60.17 mg/g, the Solubility ([2]; in Masester E8120, 25° C.) was 164.06 mg/g and the Solubility ([2]; in Medium Chain Triglyceride, 25° C.) was 16.49 mg/g. It also gave a Solubility ([2]; in Oleic acid, 25° C.) of 48.58 mg/g, a Solubility ([2]; in Olive oil, 25° C.) of 4.71 mg/g and a Solubility ([2]; in PEG 400, 25° C.) of 112.92 mg/g. It also gave a Solubility ([2]; in Propylene glycol, 25° C.) of 25.61 mg/g, a Solubility ([2]; in Soybean oil, 25° C.) of 6.72 mg/g and a Solubility ([2]; in Span 20, 25° C.) of 97.66 mg/g. The Solubility ([2]; in Span 80, 25° C.) was 54.04 mg/g, the Solubility ([2]; in Triacetin, 25° C.) was 58.75 mg/g and the Solubility ([2]; in Tween 80, 25° C.) was 88.26 mg/g. The Solubility ([2]; in Vitamin E TPGS, table title 25° C., text: conducted at 40° C.) was 82.98 mg/g.

Reference: patent US20250195551A1 (L4 BIO LLC, priority 2023, published 2025)
